Measured values taken from patent US12194014B2, “Platinum-based amphiphile prodrugs” (NANOMED HOLDINGS PTY LTD, priority 2018, dated 2025).
“Also recorded” adds a separate entry of the source.

Experiments:
[1] = test system: CFPAC-1 pancreatic cell line; assay: Cell proliferation and cytotoxicity assay (MTS or crystal violet); format: cell-based, human; settings: CFPAC-1, 72 hours; prodrug tested as nanoparticles
Procedure: (§1) Cell proliferation and cytotoxicity assays were performed in different cell lines by MTS (3-(4,5-dimethylthiazol-2-yl)-5-(3-carboxymethoxyphenyl)-2-(4-sulfophenyl)-2H-tetrazolium) assay. Cells were treated with free drug or prodrug nanoparticles, and in different concentrations in medium supplemented with 10% FBS and incubated for 72 hours.
The cytotoxicity of CP-prodrug nanoparticles made from sole CP-amphiphiles was evaluated in comparison to native CP in a CFPAC-1 pancreatic cell line.
(§2) The cell lines were exposed to media with varying concentrations of the treatments (100-0.2 μM) and incubated for 72 hours. Cell viability was determined using the MTS assay or crystal violate assay and was conducted in triplicate to derive the IC50 values.

[2] = test system: MIAPACA-2 (human pancreatic cancer) cell-derived xenograft; assay: In vivo tumour inhibition, resistant MIAPACA-2 xenograft (tumour volume, body weight, kidney histopathology); parameters: species or system NOD-SCID mice; settings: for histopathology of the kidney: 0.75 mg/Kg CP or equivalent, H & E sections
From the text: Subcutaneous xenografts were established by implanting 2-3×10^6 cells from cultures of CFPAC-1 or MIAPACA-2 human pancreatic cancer cell lines. Six-week-old male Nonbobese diabetic/severe combined immunodeficient (NOD/SCID) or nonobese diabetic/severe combined immunodeficient-gamma (NSG) mice were obtained from Animal Research Centre, Perth, Australia. These mice were acclimatised for one week in the Kearns Facility, Kolling Institute of Medical Research, the University of Sydney, following standard animal regulation and strict health controls allowing transfer between institutions. Animal care and housing was undertaken in accordance with institutional guidelines of Northern Sydney Local Health District (NSLHD) Animal Care & Ethics Committee (ACEC) (Protocol number 1011-015A).
Tumour growth was measured at least twice a week. When tumours were ˜40-100 mm3, the treatments were administered two times weekly by intraperitoneal injection (IP.) for control and gemcitabine alone groups, and intravenously (IV.) injection for nanoparticles groups for 4 weeks. At 30 days each experiment organs and tumours were harvested for analysis.
Tissue samples were fixed in 10% phosphate buffered formalin and embedded in paraffin. Formalin-fixed, paraffin embedded sections were cut 4-μm thick sections and stained with Mayer's hematoxylin and eosin (H & E). For immunohistochemistry, sections were incubated with the specific antibodies then using the Dako Envision+System-HRP labelled polymer detection kit (DaKo) according to manufacturers' protocol and counterstained with Mayer's hematoxylin and Scott's bluing solution. After mounting, sections were observed under a light microscope (ECLIPSE 80i; Nikon,
The evaluation of anticancer drugs in vivo is essential as it provides insight into the expected clinical outcomes of a drug. An in vivo evaluation of the anti-cancer efficacy of the CP-prodrug nanoparticles vs. CP was conducted on a resistant MIAPACA-2 (human pancreatic cancer) cell-derived xenograft in NOD-SCID mice. Five mice per group were used in the study and all treatments were administered via an IV injection twice a week for four weeks. The amount of CP administered in the free CP group was 0.75 mg/kg, where the nanoparticles made from CP-bis (suc-PEG3-Oleoyl) and stabilised with 30% PEG4K-oleoyl (FIG. 7b), contained 0.75 mg/kg of equivalent CP.

MCF7 cell line = assay: Cell proliferation and cytotoxicity assay (MTS or crystal violet); format: cell-based; settings: MCF7, 72 hours; prodrug tested as nanoparticles
Procedure: as §1, §2

[3] = test system: CFPAC-1 (human pancreatic cancer) cell line-derived xenograft; assay: In vivo tumour inhibition by dual prodrug nanoparticles, CFPAC-1 xenograft; parameters: species or system NOD-SCID gamma mouse (NSG); settings: twice a week for 4 weeks; NPs IV with 4.5 mg/Kg Gem (dual: + 1 mg/Kg CP) equivalent; Gemcitabine 100 mg/Kg IP
Procedure: In another study a dual drug chemotherapeutic prodrug nanoparticle was employed to treat a CFPAC-1 (human pancreatic cancer) cell line-derived xenograft in NOD-SCID gamma mouse (NSG) over 28 days. […] The control groups were injected with the commercially available free Gemcitabine at 100 mg/Kg and PBS (vehicle control). Gemcitabine group were administered by intraperitoneal (IP) injection due to high toxicity of IV injection. 24 mice were used in this study, treating 6 mice/group.

[4] = Reduction kinetics of Pt (IV) prodrug nanoparticles with ascorbic acid (LC-MS); format: in vitro ADME; settings: prodrug nanoparticles 0.1 mM, 37° C.
Procedure: The reducing agent was applied at concentrations corresponding to those found in the living cells' environment, e.g. 1 mM ascorbic acid or 2 mM glutathione (GSH).
Dispersed nanoparticles of Pt (IV) prodrug amphiphiles were mixed with GSH, ascorbic acid or their combination. The ratios of the reducing agents to platinum prodrugs were 10:1 or 50:1 for ascorbic acid and 20:1 for GSH. The reduction kinetics was analysed by LC-MS via monitoring the peaks related to each prodrug amphiphile. The prodrugs were detected by negative ions optimised for each platinum amphiphile. The reduction kinetics was plotted as the percentage of the area under the peak of Pt (IV)-prodrug compared to the peak before the addition of the reducing agent against the time of incubation. At each time point 10 μl of a sample withdrawn from the reaction solution was injected directly into a Phenomenex C8 150 mm×2 mm 5 μm Luna column (Phenomenex, Australia). A 100% Methanol solution was used as the mobile phase with a flow rate of 0.5 ml/min for 8 minutes. The sample after the column separation was eluted to the ESI source. […] The samples were well maintained at a temperature of 37° C. during the entire measurement by incubation in the temperature-controlled auto-sampler. Data was acquired and processed with Xcalibur Quan chromatography software.

[5] = Mesophase behaviour by polarized optical microscopy (POM); format: physicochemical; settings: 25° C. and 37° C.
Procedure: Polarized Optical Microscopy (POM): Samples used for Polarized Optical Microscopy (POM) were prepared by placing a small amount of prodrug amphiphile on a microscope slide and covered with a cover slip. Water was placed on the edges of the cover slip and allowed to flow into the sample by capillary action. The microscope slide was placed in a Linkam PE94 hot stage (Linkam Scientific Instruments Ltd. Surrey, England) and heated at 3° C./min between room temperature and 50° C. […] Images were captured with a Nikon DS-Ri-1 camera. All images were taken at 100× magnification.
The formation of lyotropic mesophases is based on the interaction of the prodrug amphiphile with water. Polarized optical microscopy was used to study the liquid crystalline or crystalline structures of the prodrug amphiphiles. This method was used as a preliminary and qualitative investigation to observe the morphological changes of the amphiphile as well as to predict the structural changes of the mesophases which may form upon hydration with water. For each prodrug amphiphile, a small amount of the neat and dry sample was placed on a microscope slide and covered with a cover slip. Water was placed on the edges of the cover slip to allow to flow into the sample by capillary action. Images were captured at 25° C. before and after the addition of water and at 37° C. after exposure to water. 37° C. was selected due to its physiological relevance. […]

CACO2 cell line = assay: Cell proliferation and cytotoxicity assay (MTS or crystal violet); format: cell-based; settings: CACO2, 72 hours; prodrug tested as nanoparticles
Procedure: as §1, §2

[6] = 0.75 mg/kg CP or equivalent, IV twice a week for four weeks

With N.N.[Cl][Pt][Cl] [Cisplatin, Cis-diamminedichloroplatinum (II)] the IC50 [1] was 3.6 µM, the “histopathology of the kidney” value ([2]; listed as CP) was “sever pathological changes in the form of acute tubular necrosis, haemorrhage into many of the glomeruli and swelling of the capillaries” and the “histopathology of the kidney” value ([2]; listed as CP drug) was “acute tubular necrosis”. The “average increase of body weight at the conclusion of the experiment” value [2, 6] was 14%, the “tumour growth inhibition (in words)” value [2, 6] was “growth inhibition to control PBS group, but less than group treated with nanoparticle” and the IC50 (MCF7 cell line) was 11.5 µM.

In the case of Nc1ccn([C@@H]2O[C@H](CO)[C@@H](O)C2(F)F)c(=O)n1 [Gemcitabine], the “tumour growth inhibition (in words)” value [3] is reported as “significantly reduced the tumour volume; also recorded: reduced the size of tumour significantly better than other groups”.

In the case of “cis,cis,trans-(PtC12 (succinoyl-triethyleneglycoyl-oleoyl)2) [CP-bis(suc-PEG3-oleoyl)]”, the “reduction rate at 5 mM versus 1 mM ascorbic acid” value [4] is reported as “slightly greater than 1 mM up to 4 h, however longer incubation time up to 7 h showed similar reduced prodrug at both concentrations”, the “POM observation on exposure to water” value [5] is reported as “lamellar and emulsified bands (L2 or L3) mesophases” and the IC50 [1] is reported as 5.1 µM. The IC50 (MCF7 cell line) was 28.2 µM and the IC50 (CACO2 cell line) was 49 µM.
